Results taken from patent US20230203098A1, “HUMAN TRANSFERRIN RECEPTOR BINDING PEPTIDE” (priority 2020, published 2023).
Where two headings read alike, the source gives them in different places. Values belong to the molecule of their own block, whether it stands above or below them. Where a SMILES comes first, the peptide text is derived from it. Bridges are numbered along the chain shown (N, C = ends). [ ]: non-standard residue; d: D form. The star is where a group is joined. X2 = O=C(O)c1cc(C(=O)*)ccc1-c1c2ccc(=O)cc-2oc2cc(O)ccc12; PEG12 = NCCOCCOCCOCCOCCOCCOCCOCCOCCOCCOCCOCCOCCC(=O)O; Phe(3,4-(OMe)2) = COc1ccc(C[C@H](N)C(=O)O)cc1OC; Phe(3-COOH) = N[C@@H](Cc1cccc(C(=O)O)c1)C(=O)O; NMePhe(3-Cl) = CN[C@@H](Cc1cccc(Cl)c1)C(=O)O; NMeW = CN[C@@H](Cc1c[nH]c2ccccc12)C(=O)O; NMeY = CN[C@@H](Cc1ccc(O)cc1)C(=O)O; NMeF = CN[C@@H](Cc1ccccc1)C(=O)O; 4Pal = N[C@@H](Cc1ccncc1)C(=O)O; PEG4 = NCCOCCOCCOCCOCCC(=O)O; Abu = CC[C@H](N)C(=O)O; Aib = CC(C)(N)C(=O)O

Target: transferrin receptor (hTfR) (Homo sapiens, UniProt P02786)
Sequence (P02786 whole entry): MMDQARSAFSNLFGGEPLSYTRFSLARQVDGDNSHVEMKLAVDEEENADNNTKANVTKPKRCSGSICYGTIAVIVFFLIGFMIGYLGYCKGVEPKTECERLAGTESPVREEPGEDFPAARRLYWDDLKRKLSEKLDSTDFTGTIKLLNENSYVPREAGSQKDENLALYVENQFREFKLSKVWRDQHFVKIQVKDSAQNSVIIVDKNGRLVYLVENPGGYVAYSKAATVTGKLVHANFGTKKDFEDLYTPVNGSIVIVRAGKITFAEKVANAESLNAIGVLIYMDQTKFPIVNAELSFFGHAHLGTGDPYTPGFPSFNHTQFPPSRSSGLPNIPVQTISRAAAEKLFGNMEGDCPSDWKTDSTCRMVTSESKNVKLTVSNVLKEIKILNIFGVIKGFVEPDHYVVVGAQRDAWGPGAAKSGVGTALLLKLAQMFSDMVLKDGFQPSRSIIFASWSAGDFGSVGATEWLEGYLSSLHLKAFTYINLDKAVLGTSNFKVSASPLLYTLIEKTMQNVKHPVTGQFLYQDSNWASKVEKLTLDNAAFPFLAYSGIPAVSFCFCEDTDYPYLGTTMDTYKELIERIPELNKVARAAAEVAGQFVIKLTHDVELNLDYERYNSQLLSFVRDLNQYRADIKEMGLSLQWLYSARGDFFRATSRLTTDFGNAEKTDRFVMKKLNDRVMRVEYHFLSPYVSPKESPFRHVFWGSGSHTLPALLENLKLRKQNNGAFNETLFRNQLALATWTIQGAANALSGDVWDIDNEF
Test: Intermolecular interaction evaluation test between transferrin receptor (hTfR) and peptide by surface plasmon resonance (SPR)
Format: binding
How it was run: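 Receptor was Ni-captured and EDC/NHS-fixed on an NTA chip; running buffer HEPES pH 8.0 with NaCl, Tween 20, BSA and 1.0% DMSO.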

[1] = surface plasmon resonance, peptide vs hTfR, read-out: KD value for hTfR by SPR (class symbol)
[2] = surface plasmon resonance, peptide vs hTfR, read-out: KD value, hTfR binding by SPR (class symbol)
[3] = binding to hTfR by SPR, Table 2 peptides, read-out: KD value (SPR) class
[4] = SPR, hTfR, class symbols A-D, read-out: KD

Kd [1]: 1 to 100 nM
Compound: CC[C@H](C)[C@@H]1NC(=O)[C@@H]2CCCCNC(=O)[C@H]3CCCN3C(=O)C[C@H](NC(=O)[C@H](C(C)C)NC(=O)[C@H](C)NC(=O)CSC[C@@H](C(N)=O)NC(=O)[C@H](Cc3ccc(O)cc3)N(C)C(=O)[C@H](Cc3ccc(O)cc3)NC(=O)[C@H](CCCNC(=N)N)NC(=O)[C@H](CCCNC(=N)N)NC(=O)[C@H]([C@@H](C)CC)NC1=O)C(=O)N[C@@H](C(C)C)C(=O)N(C)[C@@H](Cc1c[nH]c3ccccc13)C(=O)N[C@@H](CC(N)=O)C(=O)N[C@@H](Cc1ccc(O)cc1)C(=O)N2 [compound 414] ({CH2CO}-AVDV[NMeW]NYKIIRRY[NMeY]C-NH2; linker 3-8 via dP; thioether N-15)

Kd [2]: 1 to 100 nM
Compound: CC[C@H](C)[C@@H]1NC(=O)[C@H](Cc2ccc(OC)c(OC)c2)NC(=O)[C@H](Cc2ccc(O)cc2)NC(=O)[C@H](CC(N)=O)NC(=O)[C@H](Cc2c[nH]c3ccccc23)N(C)C(=O)[C@H](C(C)C)NC(=O)[C@H](Cc2cccc(Cl)c2)N(C)C(=O)[C@H](C(C)C)NC(=O)[C@H](C)NC(=O)CSC[C@@H](C(N)=O)NC(=O)[C@H](Cc2ccc(O)cc2)N(C)C(=O)[C@H](Cc2ccccc2)NC(=O)[C@@H](CCCNC(=N)N)NC(=O)[C@H](CCCNC(=N)N)NC(=O)[C@H]([C@@H](C)CC)NC1=O [compound 318] ({CH2CO}-AV[NMePhe(3-Cl)]V[NMeW]NY[Phe(3,4-(OMe)2)]IIR[dR]F[NMeY]C-NH2; thioether N-15)

Kd [3]: 1 to 100 nM
Compound: CC[C@H](C)[C@@H]1NC(=O)[C@H](Cc2ccc(O)cc2)NC(=O)[C@H](Cc2ccc(O)cc2)NC(=O)[C@H](CC(N)=O)NC(=O)[C@H](Cc2c[nH]c3ccc(F)cc23)NC(=O)[C@H](C(C)C)NC(=O)[C@H](Cc2ccccc2)N(C)C(=O)[C@H](C(C)C)NC(=O)[C@H](C)NC(=O)CSC[C@@H](C(N)=O)NC(=O)[C@H](Cc2ccc(O)cc2)N(C)C(=O)[C@H](Cc2ccc(O)cc2)NC(=O)[C@H](CCCNC(=N)N)NC(=O)[C@H](CCCNC(=N)N)NC(=O)[C@H]([C@@H](C)CC)NC1=O [compound 269]

Kd [3]: 1 to 100 nM
Compound: CC[C@H](C)[C@@H]1NC(=O)[C@H](Cc2ccc(O)cc2)NC(=O)[C@H](Cc2ccc(O)cc2)NC(=O)[C@H](CC(N)=O)NC(=O)[C@H](Cc2c[nH]c3ccccc23)NC(=O)[C@H](C(C)C)NC(=O)[C@H](Cc2ccccc2)NC(=O)[C@H](C(C)C)NC(=O)[C@H](C)NC(=O)CSC[C@@H](C(N)=O)NC(=O)[C@H](Cc2ccc(O)cc2)N(C)C(=O)[C@H](Cc2ccc(O)cc2)NC(=O)[C@H](CCCNC(=N)N)NC(=O)[C@H](CCCCN)N(C)C(=O)[C@H]([C@@H](C)CC)NC1=O [compound 254]

Kd [4]: 1 to 100 nM
Compound: CC[C@H](C)[C@@H]1NC(=O)[C@H](Cc2cccc(C(=O)O)c2)NC(=O)[C@H](Cc2ccc(O)cc2)NC(=O)[C@H](CC(N)=O)NC(=O)[C@H](Cc2c[nH]c3ccccc23)N(C)C(=O)[C@H](C(C)C)NC(=O)[C@H](Cc2cccc(Cl)c2)N(C)C(=O)[C@H](C(C)C)NC(=O)[C@H](C)NC(=O)CSC[C@@H](C(N)=O)NC(=O)[C@H](Cc2ccc(O)cc2)N(C)C(=O)[C@H](Cc2ccccc2)NC(=O)[C@@H](CCCNC(=N)N)NC(=O)[C@H](CCCNC(=N)N)NC(=O)[C@H]([C@@H](C)CC)NC1=O [compound 458] ({CH2CO}-AV[NMePhe(3-Cl)]V[NMeW]NY[Phe(3-COOH)]IIR[dR]F[NMeY]C-NH2; thioether N-15)

Kd (SPR, hTfR No. 894 variants with PEG12c linker (Table 2), read-out: KD): 1 to 100 nM
Compound: CC[C@H](C)[C@@H]1NC(=O)[C@H](Cc2ccc(O)cc2)NC(=O)[C@H](Cc2ccc(O)cc2)NC(=O)[C@H](CC(N)=O)NC(=O)[C@H](Cc2cccc(F)c2)NC(=O)[C@H](C(C)C)NC(=O)[C@H](Cc2ccccc2)N(C)C(=O)[C@H](C(C)C)NC(=O)[C@H](C)NC(=O)CSC[C@@H](C(=O)NCCOCCOCCOCCOCCOCCOCCOCCOCCOCCOCCOCCOCCC(N)=O)NC(=O)[C@H](Cc2ccc(O)cc2)N(C)C(=O)[C@H](Cc2ccc(O)cc2)NC(=O)[C@H](CCCNC(=N)N)NC(=O)[C@H](CCCNC(=N)N)NC(=O)[C@H]([C@@H](C)CC)NC1=O [compound 122]

Compound: CC[C@H](C)[C@@H]1NC(=O)[C@H](Cc2ccc(OC)cc2)NC(=O)[C@H](Cc2ccc(O)cc2)NC(=O)[C@H](CC(N)=O)NC(=O)[C@H](Cc2c[nH]c3ccccc23)N(C)C(=O)[C@H](C(C)C)NC(=O)[C@H](Cc2cccc(Cl)c2)N(C)C(=O)[C@H](CN)NC(=O)[C@H](C)NC(=O)CSC[C@@H](C(=O)NCC(=O)NCC(=O)NCC(=O)NCC(=O)N[C@@H](CO)C(=O)N[C@@H](CO)C(=O)N[C@@H](CS)C(N)=O)NC(=O)[C@H](Cc2ccc(O)cc2)N(C)C(=O)[C@H](Cc2ccccc2)NC(=O)[C@@H](CCCNC(=N)N)NC(=O)[C@H](CCCNC(=N)N)NC(=O)[C@H]([C@@H](C)CC)NC1=O [compound 239]
Kd: 1 to 100 nM

Kd (SPR, linker and payload (FITC, VivoTag) conjugates, read-out: KD): 1 to 100 nM
Compound: CC[C@H](C)[C@@H]1NC(=O)[C@H](Cc2ccc(O)cc2)NC(=O)[C@H](Cc2ccc(O)cc2)NC(=O)[C@H](CC(N)=O)NC(=O)[C@H](Cc2c[nH]c3ccccc23)NC(=O)[C@H](C(C)C)NC(=O)[C@H](Cc2c[nH]c3ccccc23)NC(=O)[C@H](C(C)C)NC(=O)[C@H]([C@@H](C)O)NC(=O)[C@H](CCCNC(=N)N)NC(=O)[C@H](CO)NC(=O)[C@H](CC(N)=O)NC(=O)[C@H](C)NC(=O)CSC[C@@H](C(=O)NCCOCCOCCOCCOCCOCCOCCOCCOCCOCCOCCOCCOCCC(=O)N[C@@H](CCCCNC(=O)c2ccc(-c3c4ccc(=O)cc-4oc4cc(O)ccc34)c(C(=O)O)c2)C(N)=O)NC(=O)[C@H](CCCNC(=N)N)NC(=O)[C@H]([C@@H](C)O)NC(=O)[C@H](C(C)C)NC1=O [compound 157] ({CH2CO}-ANSRTVWVWNYYIVTRC[PEG12]K(X2)-NH2; thioether N-17)

Kd [2]: 1 to 100 nM
Compound: CC[C@@H]1NC(=O)[C@H]([C@@H](C)CC)NC(=O)[C@H](Cc2ccc(OC)cc2)NC(=O)[C@H](Cc2ccc(O)cc2)NC(=O)[C@H](CC(N)=O)NC(=O)[C@H](Cc2c[nH]c3ccccc23)N(C)C(=O)[C@H](C(C)C)NC(=O)[C@H](Cc2cccc(Cl)c2)N(C)C(=O)[C@H](C(C)C)NC(=O)[C@H](C)NC(=O)CSC[C@@H](C(=O)NCCOCCOCCOCCOCCC(N)=O)NC(=O)[C@H](Cc2ccc(O)cc2)N(C)C(=O)[C@H](Cc2ccccc2)NC(=O)[C@@H](CCCNC(=N)N)NC(=O)[C@H](CCCNC(=N)N)NC1=O [compound 325] ({CH2CO}-AV[NMePhe(3-Cl)]V[NMeW]NYY(Me)I[Abu]R[dR]F[NMeY]C[PEG4]-NH2; thioether N-15)

Kd [2]: 1 to 100 nM
Compound: CC[C@H](C)[C@@H]1NC(=O)[C@H](Cc2ccc(OC)cc2)NC(=O)[C@H](Cc2ccc(O)cc2)NC(=O)[C@H](CC(N)=O)NC(=O)[C@H](Cc2c[nH]c3ccccc23)N(C)C(=O)[C@H](C(C)C)NC(=O)[C@H](Cc2cccc(Cl)c2)N(C)C(=O)[C@H](C(C)C)NC(=O)[C@H](C)NC(=O)CSC[C@@H](C(=O)NCCOCCOCCOCCOCCC(N)=O)NC(=O)[C@H](Cc2ccc(O)cc2)N(C)C(=O)[C@H](Cc2ccccc2)NC(=O)[C@@H](CCCNC(=N)N)NC(=O)[C@H](CCCNC(=N)N)NC(=O)C(C)(C)NC1=O [compound 333] ({CH2CO}-AV[NMePhe(3-Cl)]V[NMeW]NYY(Me)I[Aib]R[dR]F[NMeY]C[PEG4]-NH2; thioether N-15)

Kd [1]: 1 to 100 nM
Compound: CC[C@H](C)[C@@H]1NC(=O)[C@H](Cc2ccc(O)cc2)NC(=O)[C@H](Cc2ccc(O)cc2)NC(=O)[C@H](CC(N)=O)NC(=O)[C@H](Cc2c[nH]c3ccccc23)N(C)C(=O)[C@H](C(C)C)NC(=O)[C@H](Cc2cccc(Cl)c2)N(C)C(=O)[C@@H]2CCC(=O)NCC(=O)NCCCC[C@H](NC(=O)[C@H]([C@@H](C)CC)NC1=O)C(=O)N[C@@H](CCCNC(=N)N)C(=O)N[C@@H](Cc1ccc(O)cc1)C(=O)N(C)[C@@H](Cc1ccc(O)cc1)C(=O)N[C@H](C(N)=O)CSCC(=O)N[C@@H](C)C(=O)N2 [compound 417]

Kd [2]: 1 to 100 nM
Compound: CC[C@H](C)[C@@H]1NC(=O)[C@H](Cc2ccc(OC)cc2)NC(=O)[C@H](Cc2ccc(O)cc2)NC(=O)[C@H](CC(N)=O)NC(=O)[C@H](Cc2c[nH]c3ccccc23)N(C)C(=O)[C@H](C(C)C)NC(=O)[C@H](Cc2ccccc2)N(C)C(=O)[C@H](C(C)C)NC(=O)[C@H](C)NC(=O)CSC[C@@H](C(=O)NCCOCCOCCOCCOCCC(N)=O)NC(=O)[C@H](Cc2ccc(O)cc2)N(C)C(=O)[C@H](Cc2ccccc2)NC(=O)[C@@H](CCCNC(=N)N)NC(=O)C(C)(C)NC(=O)[C@H]([C@@H](C)CC)NC1=O [compound 301] ({CH2CO}-AV[NMeF]V[NMeW]NYY(Me)II[Aib][dR]F[NMeY]C[PEG4]-NH2; thioether N-15)

Kd [3]: 1 to 100 nM
Compound: CC[C@H](C)[C@@H]1NC(=O)[C@H](Cc2ccc(O)cc2)NC(=O)[C@H](Cc2ccc(O)cc2)NC(=O)[C@H](CC(N)=O)NC(=O)[C@H](Cc2c[nH]c3ccccc23)NC(=O)[C@H](C(C)C)NC(=O)[C@H](Cc2ccccc2)NC(=O)[C@H](C(C)C)NC(=O)[C@H](C)NC(=O)CSC[C@@H](C(N)=O)NC(=O)[C@H](Cc2ccc(O)cc2)N(C)C(=O)[C@H](Cc2ccc(O)cc2)NC(=O)[C@H](CCCNC(=N)N)NC(=O)[C@H](CCCNC(=N)N)NC(=O)[C@H](CCC(=O)O)NC1=O [compound 247]

Kd [4]: 1 to 100 nM
Compound: CC[C@H](C)[C@@H]1NC(=O)[C@H](Cc2ccncc2)NC(=O)[C@H](Cc2ccc(O)cc2)NC(=O)[C@H](CC(N)=O)NC(=O)[C@H](Cc2c[nH]c3ccccc23)N(C)C(=O)[C@H](C(C)C)NC(=O)[C@H](Cc2cccc(Cl)c2)N(C)C(=O)[C@H](C(C)C)NC(=O)[C@H](C)NC(=O)CSC[C@@H](C(N)=O)NC(=O)[C@H](Cc2ccc(O)cc2)N(C)C(=O)[C@H](Cc2ccccc2)NC(=O)[C@@H](CCCNC(=N)N)NC(=O)[C@H](CCCNC(=N)N)NC(=O)[C@H]([C@@H](C)CC)NC1=O [compound 455] ({CH2CO}-AV[NMePhe(3-Cl)]V[NMeW]NY[4Pal]IIR[dR]F[NMeY]C-NH2; thioether N-15)
